Test results taken from US10590140B2, “Tetrahydropyrimidodiazepine and dihydropyridodiazepine compounds for treating pain and pain related conditions” (ESTEVE PHARMACEUTICALS, S.A., priority 2016, dated 2020).
Like-named read-outs stand apart in the source and are kept apart here.

Assays:
[1] = biological target: human norepinephrine transporter (NET) (Homo sapiens (Human), UniProt P23975); assay: Binding assay to human norepinephrine transporter (NET) ([3H]-Nisoxetin); conditions: Table 2, dual compounds; [3H]-Nisoxetin binding
Chain of human norepinephrine transporter (NET) (P23975 whole entry): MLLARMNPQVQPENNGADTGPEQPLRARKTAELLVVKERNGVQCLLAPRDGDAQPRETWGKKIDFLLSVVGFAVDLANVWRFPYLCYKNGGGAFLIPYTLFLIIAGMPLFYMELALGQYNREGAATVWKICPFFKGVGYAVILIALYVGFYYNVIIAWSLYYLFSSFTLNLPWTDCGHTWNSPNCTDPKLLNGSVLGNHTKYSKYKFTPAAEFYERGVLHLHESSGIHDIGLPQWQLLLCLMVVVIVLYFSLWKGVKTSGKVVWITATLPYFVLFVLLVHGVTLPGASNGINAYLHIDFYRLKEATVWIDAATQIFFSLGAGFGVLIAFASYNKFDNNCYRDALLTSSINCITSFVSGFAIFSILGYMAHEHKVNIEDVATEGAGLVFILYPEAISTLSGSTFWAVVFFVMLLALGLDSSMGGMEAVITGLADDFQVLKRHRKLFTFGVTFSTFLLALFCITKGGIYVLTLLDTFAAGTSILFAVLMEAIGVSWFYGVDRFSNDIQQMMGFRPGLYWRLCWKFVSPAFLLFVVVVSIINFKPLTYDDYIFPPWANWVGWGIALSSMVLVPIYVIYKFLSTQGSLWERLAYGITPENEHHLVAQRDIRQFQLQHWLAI
Method: Binding Assay to Human Norepinephrine Transporter (NET).
Human norepinephrine transporter (NET) enriched membranes (5 μg) were incubated with 5 nM of radiolabeled [3H]-Nisoxetin in assay buffer containing 50 mM Tris-HCl, 120 mM NaCl, 5 mM KCl, pH 7.4.
NSB (non specific binding) was measured by adding 1 μM. After 60 min incubation at 4° C., binding reaction was terminated by filtering through Multiscreen GF/C (Millipore) presoaked in 0.5% polyethyleneimine in Vacuum Manifold Station, followed by 3 washes with ice-cold filtration buffer containing 50 mM Tris-HCl, 0.9% NaCl, pH 7.4.
Filter plates were dried at 60° C. for 1 hour and 30 μl of scintillation cocktail were added to each well before radioactivity reading.

[2] = biological target: human α2δ-1 subunit of Cav2.2 calcium channel (Homo sapiens (Human), UniProt P54289); assay: Binding assay to human α2δ-1 subunit of Cav2.2 calcium channel ([3H]-Gabapentin); conditions: read-out: Ki (nM) α2δ-1
Chain of human α2δ-1 subunit of Cav2.2 calcium channel (P54289 25-1103): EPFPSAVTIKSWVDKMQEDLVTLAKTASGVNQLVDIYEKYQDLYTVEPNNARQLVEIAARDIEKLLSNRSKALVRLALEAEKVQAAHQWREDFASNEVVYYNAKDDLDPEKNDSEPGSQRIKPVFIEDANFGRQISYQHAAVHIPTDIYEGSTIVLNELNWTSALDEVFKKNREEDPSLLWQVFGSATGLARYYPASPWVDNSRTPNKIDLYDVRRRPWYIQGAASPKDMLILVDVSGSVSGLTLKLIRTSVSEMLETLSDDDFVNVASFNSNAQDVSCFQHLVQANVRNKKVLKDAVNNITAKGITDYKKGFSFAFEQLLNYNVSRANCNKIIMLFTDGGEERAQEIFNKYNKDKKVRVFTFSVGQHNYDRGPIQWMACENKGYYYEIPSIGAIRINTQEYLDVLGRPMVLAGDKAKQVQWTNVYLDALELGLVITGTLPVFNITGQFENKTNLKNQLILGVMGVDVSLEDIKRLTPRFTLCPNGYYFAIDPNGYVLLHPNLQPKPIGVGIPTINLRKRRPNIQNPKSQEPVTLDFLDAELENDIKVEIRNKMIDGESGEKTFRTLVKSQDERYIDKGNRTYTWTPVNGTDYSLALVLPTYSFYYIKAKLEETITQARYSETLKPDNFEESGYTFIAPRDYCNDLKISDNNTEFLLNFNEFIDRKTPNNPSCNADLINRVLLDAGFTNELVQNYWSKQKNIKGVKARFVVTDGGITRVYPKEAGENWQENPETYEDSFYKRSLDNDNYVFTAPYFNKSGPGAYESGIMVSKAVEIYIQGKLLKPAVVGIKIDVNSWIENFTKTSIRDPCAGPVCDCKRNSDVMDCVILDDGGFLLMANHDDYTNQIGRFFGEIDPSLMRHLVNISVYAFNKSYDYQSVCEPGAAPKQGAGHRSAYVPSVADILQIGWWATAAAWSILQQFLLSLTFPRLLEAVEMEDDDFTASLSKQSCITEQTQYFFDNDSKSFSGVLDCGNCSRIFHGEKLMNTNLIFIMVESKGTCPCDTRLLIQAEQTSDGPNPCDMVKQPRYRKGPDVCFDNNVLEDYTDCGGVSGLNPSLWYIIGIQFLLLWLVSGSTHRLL
Summary of the method: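 [3H]-gabapentin binding, 60 min at 27° C; nonspecific binding defined with 10 μM pregabalin. Terminated by filtration on PEI-presoaked GF/C filters, ice-cold 50 mM Tris-HCl pH 7.4 washes, then scintillation counting.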

[3] = Table 2, dual compounds, [3H]-Gabapentin binding
[4] = binding to α2δ-1, [3H]-Gabapentin

Row | Ki [1] | Ki [2, 3] | Ki [2, 4] | SMILES
1 | 100 to 500 nM | 100 to 500 nM | 100 to 500 nM | CNCCC(Oc1ccc(CN2CCN(C)c3ccncc3C2=O)cc1)c1cccs1 (stereo not drawn) [Example 381, 1-methyl-4-(4-(3-(methylamino)-1-(thiophen-2-yl)propoxy)benzyl)-1,2,3,4-tetrahydro-5H-pyrido[4,3-e][1,4]diazepin-5-one]
2 | 100 to 500 nM | 500 to 3000 nM | 500 to 3000 nM | CNCCC(OCc1cccc(N2CCN(C)c3nc(C(F)(F)F)ncc3C2=O)c1)c1cccs1 (stereo not drawn) [Example 330, 9-methyl-6-(3-((3-(methylamino)-1-(thiophen-2-yl)propoxy)methyl)phenyl)-2-(trifluoromethyl)-6,7,8,9-tetrahydro-5H-pyrimido[4,5-e][1,4]diazepin-5-one]
3 | < 100 nM | > 3000 nM | > 3000 nM | CNCCC(Oc1ccc(CN2CCN(C)c3nc(C)ncc3C2=O)cc1)c1ccccc1 (stereo not drawn) [Example 425, 2,9-dimethyl-6-(4-(3-(methylamino)-1-phenylpropoxy)benzyl)-6,7,8,9-tetrahydro-5H-pyrimido[4,5-e][1,4]diazepin-5-one]
4 | 100 to 500 nM | > 3000 nM | > 3000 nM | CNCCC(OCc1cccc(CN2CCN(C)c3nc(C)ncc3C2=O)c1)c1ccccc1 (stereo not drawn) [Example 423, 2,9-dimethyl-6-(3-((3-(methylamino)-1-phenylpropoxy)methyl)benzyl)-6,7,8,9-tetrahydro-5H-pyrimido[4,5-e][1,4]diazepin-5-one]
5 | 100 to 500 nM | > 3000 nM | > 3000 nM | CNCC[C@@H](Oc1ccc(CN2CCN(C)c3ncncc3C2=O)cc1)c1ccccc1 [Example 434, (R)-9-methyl-6-(4-(3-(methylamino)-1-phenylpropoxy)benzyl)-6,7,8,9-tetrahydro-5H-pyrimido[4,5-e][1,4]diazepin-5-one]
6 | 100 to 500 nM | 100 to 500 nM | 100 to 500 nM | CNCC[C@H](Oc1ccc(CN2CCN(C)c3cc(N)ncc3C2=O)cc1)c1cccs1 [Example 305, (S)-8-amino-1-methyl-4-(4-(3-(methylamino)-1-(thiophen-2-yl)propoxy)benzyl)-1,2,3,4-tetrahydro-5H-pyrido[4,3-e][1,4]diazepin-5-one]
7 | < 100 nM | 500 to 3000 nM | 500 to 3000 nM | CNCCC(Oc1ccc(CN2CCN(C)c3ncncc3C2=O)cc1)c1ccccc1 (stereo not drawn) [Example 430, 9-methyl-6-(4-(3-(methylamino)-1-phenylpropoxy)benzyl)-6,7,8,9-tetrahydro-5H-pyrimido[4,5-e][1,4]diazepin-5-one]
8 | 100 to 500 nM | > 3000 nM | > 3000 nM | CCNc1ncc2c(n1)N(C)CCN(Cc1ccc(COC(CCNC)c3ccccc3)cc1)C2=O (stereo not drawn) [Example 405, 2-(ethylamino)-9-methyl-6-(4-((3-(methylamino)-1-phenylpropoxy)methyl)benzyl)-6,7,8,9-tetrahydro-5H-pyrimido[4,5-e][1,4]diazepin-5-one]
9 | 500 to 1000 nM | > 3000 nM | > 3000 nM | CNCCC(Oc1cccc(CN2CCN(C)c3nc(SC)ncc3C2=O)c1)c1ccccc1 (stereo not drawn) [Example 366, 9-methyl-6-(3-(3-(methylamino)-1-phenylpropoxy)benzyl)-2-(methylthio)-6,7,8,9-tetrahydro-5H-pyrimido[4,5-e][1,4]diazepin-5-one]
10 | 100 to 500 nM | > 3000 nM | > 3000 nM | CNCCC(OCc1cccc(CN2CCN(C)c3nc(SC)ncc3C2=O)c1)c1ccccc1 (stereo not drawn) [Example 367, 9-methyl-6-(3-((3-(methylamino)-1-phenylpropoxy)methyl)benzyl)-2-(methylthio)-6,7,8,9-tetrahydro-5H-pyrimido[4,5-e][1,4]diazepin-5-one]

More lines, now with the values behind:

Row | SMILES | Ki [1] | Ki [2, 3] | Ki [2, 4]
11 | CCNc1ncc2c(n1)N(C)CCN(c1cccc(CO[C@H](CCNC)c3ccccc3)c1)C2 [Example 203, (R)—N-ethyl-9-methyl-6-(3-((3-(methylamino)-1-phenylpropoxy)methyl)phenyl)-6,7,8,9-tetrahydro-5H-pyrimido[4,5-e][1,4]diazepin-2-amine] | 500 to 1000 nM | 500 to 3000 nM | 500 to 3000 nM
12 | CCNc1ncc2c(n1)N(C)CCN(Cc1cccc(COC(CNC)c3ccccc3)c1)C2=O (stereo not drawn) [Example 411, 2-(ethylamino)-9-methyl-6-(3-((2-(methylamino)-1-phenylethoxy)methyl)benzyl)-6,7,8,9-tetrahydro-5H-pyrimido[4,5-e][1,4]diazepin-5-one] | 500 to 1000 nM | > 3000 nM | > 3000 nM
13 | CNCC[C@H](Oc1cccc(N2CCN(C)c3nc(SC)ncc3C2=O)c1)c1ccccc1 [Example 153, (S)-9-methyl-6-(3-(3-(methylamino)-1-phenylpropoxy)phenyl)-2-(methylthio)-6,7,8,9-tetrahydro-5H-pyrimido[4,5-e][1,4]diazepin-5-one] | < 100 nM | > 3000 nM | > 3000 nM
14 | CCNc1ncc2c(n1)N(C)CCN(c1cccc(-n3cnc(CN(C)CCc4ccccc4)c3)c1)C2=O [Example 254, 2-(ethylamino)-9-methyl-6-(3-(4-((methyl(phenethyl)amino)methyl)-1H-imidazol-1-yl)phenyl)-6,7,8,9-tetrahydro-5H-pyrimido[4,5-e][1,4]diazepin-5-one] | 500 to 1000 nM | 500 to 3000 nM | 500 to 3000 nM
15 | CSc1ncc2c(n1)N(C)CCN(c1cccc(COC3(c4ccccc4)CCN(C)CC3)c1)C2=O [Example 271, 9-methyl-6-(3-(((1-methyl-4-phenylpiperidin-4-yl)oxy)methyl)phenyl)-2-(methylthio)-6,7,8,9-tetrahydro-5H-pyrimido[4,5-e][1,4]diazepin-5-one] | > 1000 nM | > 3000 nM | > 3000 nM
16 | CCNc1ncc2c(n1)N(C)CCN(c1cccc(OCCN(C)CCc3ccccc3)c1)C2=O [Example 265, 2-(ethylamino)-9-methyl-6-(3-(2-(methyl(phenethyl)amino)ethoxy)phenyl)-6,7,8,9-tetrahydro-5H-pyrimido[4,5-e][1,4]diazepin-5-one] | 100 to 500 nM | 100 to 500 nM | 100 to 500 nM
17 | CNCC(OCc1ccc(N2CCN(C)c3nc(SC)ncc3C2=O)cc1)c1ccccc1 (stereo not drawn) [Example 321, 9-methyl-6-(4-((2-(methylamino)-1-phenylethoxy)methyl)phenyl)-2-(methylthio)-6,7,8,9-tetrahydro-5H-pyrimido[4,5-e][1,4]diazepin-5-one] | < 100 nM | > 3000 nM | > 3000 nM
18 | CCNc1ncc2c(n1)N(C)CCN(c1cccc(CO[C@@H](CCN(C)C)c3ccccc3)c1)C2=O [Example 237, (S)-6-(3-((3-(dimethylamino)-1-phenylpropoxy)methyl)phenyl)-2-(ethylamino)-9-methyl-6,7,8,9-tetrahydro-5H-pyrimido[4,5-e][1,4]diazepin-5-one] | > 1000 nM | 500 to 3000 nM | 500 to 3000 nM
19 | CCNc1ncc2c(n1)N(C)CCN(c1cccc(OC(CN(C)C)c3ccccc3)c1)C2=O (stereo not drawn) [Example 239, 6-(3-(2-(dimethylamino)-1-phenylethoxy)phenyl)-2-(ethylamino)-9-methyl-6,7,8,9-tetrahydro-5H-pyrimido[4,5-e][1,4]diazepin-5-one] | 500 to 1000 nM | > 3000 nM | > 3000 nM
20 | CCNc1ncc2c(n1)N(C)CCN(c1cccc(-n3cc(CN(C)CC4CC4)nn3)c1)C2=O [Example 246, 6-(3-(4-(((cyclopropylmethyl)(methyl)amino)methyl)-1H-1,2,3-triazol-1-yl)phenyl)-2-(ethylamino)-9-methyl-6,7,8,9-tetrahydro-5H-pyrimido[4,5-e][1,4]diazepin-5-one] | 100 to 500 nM | 100 to 500 nM | 100 to 500 nM
21 | CCNc1ncc2c(n1)N(C)CCN(c1cccc(OC(CNC)c3ccccc3)c1)C2=O (stereo not drawn) [Example 154, 2-(ethylamino)-9-methyl-6-(3-(2-(methylamino)-1-phenylethoxy)phenyl)-6,7,8,9-tetrahydro-5H-pyrimido[4,5-e][1,4]diazepin-5-one] | 100 to 500 nM | 500 to 3000 nM | 500 to 3000 nM
22 | CNCC[C@@H](OCc1cccc(N2CCN(C)c3nc(NC)ncc3C2=O)c1)c1ccccc1 [Example 197, (R)-9-methyl-2-(methylamino)-6-(3-((3-(methylamino)-1-phenylpropoxy)methyl)phenyl)-6,7,8,9-tetrahydro-5H-pyrimido[4,5-e][1,4]diazepin-5-one] | 500 to 1000 nM | 500 to 3000 nM | 500 to 3000 nM
23 | CNCCC(OCc1ccc(N2CCN(C)c3nc(SC)ncc3C2=O)cc1)c1ccccc1 (stereo not drawn) [Example 315, 9-methyl-6-(4-((3-(methylamino)-1-phenylpropoxy)methyl)phenyl)-2-(methylthio)-6,7,8,9-tetrahydro-5H-pyrimido[4,5-e][1,4]diazepin-5-one] | < 100 nM | > 3000 nM | > 3000 nM
24 | CNC(COCc1cccc(N2CCN(C)c3nc(SC)ncc3C2=O)c1)c1ccccc1 (stereo not drawn) [Example 167, 9-methyl-6-(3-((2-(methylamino)-2-phenylethoxy)methyl)phenyl)-2-(methylthio)-6,7,8,9-tetrahydro-5H-pyrimido[4,5-e][1,4]diazepin-5-one] | > 1000 nM | > 3000 nM | > 3000 nM
25 | CNCC[C@@H](OCc1cccc(N2CCN(C)c3nc(SC)ncc3C2=O)c1)c1ccccc1 [Example 164, (R)-9-methyl-6-(3-((3-(methylamino)-1-phenylpropoxy)methyl)phenyl)-2-(methylthio)-6,7,8,9-tetrahydro-5H-pyrimido[4,5-e][1,4]diazepin-5-one] | 100 to 500 nM | 100 to 500 nM | 100 to 500 nM
